In patent publication US20250345458A1, “COMPLEXING AGENT SALT FORMULATIONS OF PHARMACEUTICAL COMPOUNDS AT LOW STOICHIOMETRIC RATIOS” (Bexson Biomedical, Inc., priority 2022, published 2025):
“And” between values parts separate entries of the source, which are not always exact repeats. Equal values may be shown once. Marks after values point to notes of the source that are not given here.

Columns and labels:
[1] = Osmolality of API formulations (micro osmometer, triplicate); type: physicochemical
Method: Osmolality readings were obtained on an Advanced Instruments Advanced™ Micro Osmometer Model 3300 (Advanced Instruments, Inc. Norwood, MA, USA). Saline solutions (0.9% and 3%) were run as positive controls. Each sample was calculated as the mean from back-to-back triplicate measurements. When replicate batches were measured, data was reported as mean±SEM.
The procedure was performed on a 2 mL scale. […] Benzethonium chloride (20 μL of a 1% solution, 0.01% final concentration) was added via micropipette. The pH was adjusted to ˜7.00 with 2M sodium hydroxide, or either 1M or 2M HCl in some cases, and then the mixture was transferred to a 2 mL volumetric flask to be diluted with HPLC grade water. […]
Method 1: In a 5 mL borosilicate glass test tube which contained a Teflon-coated magnetic stir bar, Captisol®-Na+ ([…], H+ equivalents, moisture corrected) was dissolved in HPLC grade water (1.6-1.7 mL), API salt (HCl in most cases) (70 mg/mL FB equivalents) was added and the mixture was stirred until a homogenous transparent solution formed. Benzethonium chloride (20 μL of a 1% solution, giving a 0.01% final concentration) was added via micropipette. The pH was adjusted to ˜7.00 with 1M or 2M sodium hydroxide, or either 1M or 2M HCl in some cases, and then the mixture was transferred to a 2 mL volumetric flask to be diluted with HPLC grade water. […]
Benzethonium chloride (20 μL of a 1% solution, giving a 0.01% final concentration) was added via micropipette. The pH was adjusted to ˜7.00 with 1M or 2M sodium hydroxide, or either 1M or 2M HCl in some cases, and then the mixture transferred to a 2 mL volumetric flask to be diluted with HPLC grade water. […]
The solution was transferred to a 2 mL volumetric flask and diluted to the target volume with HPLC grade water. […]

[2] = pH of API formulations (pH meter); type: physicochemical; settings: for final pH: after 2M NaOH
[3] = API-CapAcid salts prepared in ethanol, then 70 mg of solid added to 1 mL water (visual); type: physicochemical; settings: for pH of the ethanol solution prior to titration: API FB 100 mg + CapAcid 1 molar equivalent (H^+) in 10 mL 200 proof ethanol; for dissolution of 70 mg of the ethanol-prepared API-CapAcid solid in 1 mL water: visual, vortexed
Method: The resulting solid API-CapAcid salts were then obtained as solids by evaporation of the ethanol, followed by lyophilization.
In a scintillation vial, a solution of API FB (100 mg) and CapAcid (1 molar equivalent, moisture corrected) was prepared by dissolving Cap Acid in 200 proof ethanol (5 mL) and then adding the freebase API. […] Whether or not the freebase dissolved after the second addition of ethanol, the initial pH, prior to titration, was recorded. The vial was then wrapped in foil and left uncovered in the hood to allow the ethanol to evaporate. After the ethanol fully evaporated, a small amount of HPLC grade water (3-5 mL) was added to each to see if the product would dissolve or become a suspension in the water. The solution was then lyophilized to remove the water. The product was ground with a stir rod and 70±0.1 mg was added to 1 mL of water to see if it would dissolve.

[4] = in water, cited from earlier work; for Reported Freebase Solubility: vendor or literature value
[5] = Dissolution of API freebase in aqueous CapAcid / Captisol solutions at defined API:CapAcid ratios, visual inspection and NaOH titration
[6] = Osmolality of API formulations (micro osmometer, triplicate); type: physicochemical; settings: API FB with Captisol® Sodium, 1 molar equivalent relative to the cyclodextrin, after 48 hours
[7] = literature value; cited from earlier work
[8] = Visual dissolution / precipitation of API free base-CapAcid formulations at stated API:CapAcid ratios; type: physicochemical
[9] = API FB CapAcid formulation, 70 mg/mL API FB, 1.1 equivalents CapAcid (H^+ equivalents), after titration
[10] = API Salt (70 mg/mL API Salt in FB equivalent) in water
[11] = API salt 70 mg/mL (FB equivalents) in water
[12] = API salt Captisol®-Na^+ formulation, 70 mg/mL FB equivalent, 1.1 equivalents Captisol®-Na^+
[13] = CapAcid-API Freebase Formulation (70 mg/mL API FB, 1.1 molar equivalent CapAcid), after pH titration with NaOH or HCl
[14] = Captisol®-Na^+ formulation, 70 mg/mL API Salt in FB equivalent, 1.1 molar equivalent Captisol®-Na^+
[15] = 70 mg/mL API FB, 1.1 equivalents CapAcid, before NaOH/HCl
[16] = 70 mg/mL API salt (FB equivalent), 1.1 equivalents Captisol®-Na^+, before NaOH
[17] = Captisol®-Na^+ formulation, 70 mg/mL API Salt in FB equivalent, 1.1 molar equivalent Captisol®-Na^+, final pH
[18] = 1:1 ratio of API to CapAcid (relative to the cyclodextrin), water
[19] = CapAcid-API Freebase Formulation (70 mg/mL API FB, 1.1 molar equivalent CapAcid), final pH after titration and dilution
[20] = 70 mg/mL API FB and 1 equivalent of 6M HCl in water
[21] = 70 mg/mL API FB, 1 equivalent of 6M HCl, 1.1 equivalents Captisol®-Na^+
[22] = *70 mg/mL API FB + molar equivalent of 6M HCl in water
[23] = Captisol®-Na^+ formulation, *70 mg/mL API FB + 6M HCl, 1.1 molar equivalent Captisol®-Na^+
[24] = 70 mg/mL API FB, 1 equivalent 6M HCl, 1.1 equivalents Captisol®-Na^+, before NaOH/HCl
[25] = 2:1 ratio of API to CapAcid (relative to the cyclodextrin), water

Compound: CC[C@H](C)C[C@H](C)CCCCCCCCC(=O)N[C@H]1C[C@@H](O)[C@@H](NCCN)NC(=O)[C@@H]2[C@@H](O)CCN2C(=O)[C@H]([C@H](O)CCN)NC(=O)[C@H]([C@H](O)[C@@H](O)c2ccc(O)cc2)NC(=O)[C@@H]2C[C@@H](O)CN2C(=O)[C@H]([C@@H](C)O)NC1=O [Caspofungin]
- Osmolality [1, 9]: 59 mOsmol/kg
- Osmolality [1, 10]: 94 mOsm/kg
- Osmolality [1, 11]: 94 mOsmol/kg
- Osmolality [1, 12]: 209.3 mOsmol/kg
- Osmolality [1, 13]: 59** mOsm/kg
- Osmolality [1, 14]: 209.3 mOsm/kg
- pH of the solution prior to titration [2, 15]: 7.78
- pH of the solution prior to titration [2, 16]: 6.13
- pH [2, 10]: 5.86
- pH [2, 17]: 7.04

Compound: COc1c(OCCCN2CCOCC2)ccc2c1N=C(NC(=O)c1cnc(N)nc1)N1CCN=C21 [Copanlisib]
- pH of the solution before titration ([2]; 1:1 ratio of API to CapAcid): 0.76
- final pH ([2]; 1:1 ratio of API to CapAcid): 6.13
- pH of the solution before titration ([2]; 2:1 ratio of API to CapAcid): 2.10
- pH of the ethanol solution prior to titration [3]: 0.66
- dissolution of 70 mg of the ethanol-prepared API-CapAcid solid in 1 mL water [3]: became cloudy with a brown precipitate at the bottom
- Reported Freebase Solubility [4]: Insoluble^19
- Reported Salt Solubility [4]: 0.023 mg/mL^18
- concentration (FB equivalents) at which the freebase dissolved [5, 18]: 33300 µg/mL
- dissolution by visual inspection ([5]; 2:1 ratio of API to CapAcid, 100 mg FB in 30 mL water (3 mg/mL)): clear with a small amount of undissolved oil
- pH at which precipitation occurred on titration with NaOH ([5]; 2:1 ratio of API to CapAcid, target 3 mg/mL): 2.20

Compound: NC12CC3CC(CC(C3)C1)C2 [1-Amantadine]
- Osmolality [1, 9]: 411.6 mOsmol/kg
- Osmolality [1, 10]: 832 mOsm/kg
- Osmolality [1, 12]: 1,446.7 mOsmol/kg
- Osmolality [1, 13]: 411.6 mOsm/kg
- Osmolality [1, 14]: 1,446.7 mOsm/kg
- pH of the solution prior to titration [2, 15]: 1.43
- pH of the solution prior to titration [2, 16]: 3.93
- pH [2, 10]: 5.67
- pH [2, 19]: 6.97
- pH [2, 17]: 6.99

Compound: Cc1ncc2n1-c1ccc(Cl)cc1C(c1ccccc1F)=NC2 [Midazolam]
- final pH of the solution ([2]; 3:1 ratio, after 0.5 M HCl redissolved the solid): 2.86
- pH when solids began to crash out ([2]; 3:1 ratio, after 360 μL total 2M NaOH): 2.92
- highest achievable pH without precipitation of freebase solids ([5]; 3:1 ratio of API to CapAcid (relative to the cyclodextrin), 300.8 mg FB in 10 mL water): 3.15
- dissolution by visual inspection ([5]; 3:1 ratio of API to CapAcid (relative to the cyclodextrin), 10 mL water): transparent colorless solution
- dissolution by visual inspection ([5]; CapAcid 1 molar equivalent relative to H^+, 300.8 mg FB in 10 mL water, 30 minutes): cloudy suggesting incomplete dissolution

Compound: COC(=O)[C@@H](N)Cc1ccc(O)c(O)c1 [Melevodopa]
- Osmolality [1, 9]: 605.7 mOsmol/kg
- Osmolality [1, 13]: 605.7 mOsm/kg
- pH of the solution prior to titration [2, 15]: 1.22
- pH [2, 19]: 6.97

Compound: CCC(CC)COC(=O)[C@H](C)N[P@](=O)(OC[C@H]1O[C@@](C#N)(c2ccc3c(N)ncnn23)[C@H](O)[C@@H]1O)Oc1ccccc1 [Remdesivir]
- Reported Freebase Solubility [4]: Insoluble^15

Compound: Nc1ccncc1N [Amifampridine, Pyridine-3,4-diamine]
- Osmolality [1, 20]: 740.3 mOsmol/kg
- Osmolality [1, 21]: 1023.3 mOsmol/kg
- Osmolality [1, 22]: 740.3*^ mOsm/kg
- Osmolality [1, 9]: 532.7 mOsmol/kg
- Osmolality [1, 13]: 532.7** mOsm/kg
- Osmolality [1, 23]: 1,023.3* mOsm/kg
- pH of the solution prior to titration [2, 24]: 9.27
- pH of the solution prior to titration [2, 15]: 9.19
- Reported Freebase Solubility [4]: 7000 µg/mL

Compound: N=C(N)c1ccc2cc(OC(=O)c3ccc(N=C(N)N)cc3)ccc2c1 [Nafamostat]
- pH of the solution before titration ([2]; 1:1 ratio of API to CapAcid): 0.49
- final pH ([2]; 1:1 ratio of API to CapAcid): 6.99
- pH of the solution before titration ([2]; 2:1 ratio of API to CapAcid): 1.55
- final pH ([2]; 2:1 ratio of API to CapAcid): 6.96
- Osmolality [6]: 354.3 mOsm/Kg
- concentration (FB equivalents) at which the freebase dissolved [5, 18]: 33300 µg/mL
- concentration (FB equivalents) at which the freebase dissolved [5, 25]: 3000 µg/mL
- concentration at which the freebase dissolved ([5]; API FB with Captisol® Sodium 1 molar equivalent, water, stirring 30 minutes): ~16700 µg/mL

Compound: COc1ccccc1OCCNCC(O)COc1cccc2[nH]c3ccccc3c12 (stereo not drawn) [Carvedilol]
- pH of the ethanol solution prior to titration [3]: 0.82
- dissolution of 70 mg of the ethanol-prepared API-CapAcid solid in 1 mL water ([3]; Method 2 solid): insoluble solution
- dissolution of 70 mg of the ethanol-prepared API-CapAcid solid in 1 mL water [3]: insoluble solution

Compound: NCC[C@H](O)C(=O)N[C@@H]1C[C@H](N)[C@@H](O[C@H]2O[C@H](CN)[C@@H](O)[C@H](O)[C@H]2O)[C@H](O)[C@H]1O[C@H]1O[C@H](CO)[C@@H](O)[C@H](N)[C@H]1O [Amikacin]
- Osmolality [1, 20]: 287 mOsmol/kg
- Osmolality [1, 21]: 504.3 mOsmol/kg
- Osmolality [1, 22]: 287* mOsm/kg
- Osmolality [1, 9]: 268 mOsmol/kg and 252.2 mOsmol/kg
- Osmolality [1, 13]: 1: 268 mOsm/kg and 2: 252.3 mOsm/kg
- Osmolality [1, 23]: 504.3* mOsm/kg
- pH of the solution prior to titration [2, 24]: 1.28
- pH of the solution prior to titration [2, 15]: 1.13 and 1.25
- pKa [7]: 8.1^14

Compound: NC1C2CC3CC(C2)CC1C3 (stereo not drawn) [2-Amantadine]
- Osmolality [1, 9]: 435.7 mOsmol/kg
- Osmolality [1, 10]: 826.7 mOsm/kg
- Osmolality [1, 12]: 1,492.7 mOsmol/kg
- Osmolality [1, 13]: 435.7 mOsm/kg
- Osmolality [1, 14]: 1492.7 mOsm/kg
- pH of the solution prior to titration [2, 15]: 1.29
- pH of the solution prior to titration [2, 16]: 5.63
- pH [2, 10]: 6.94
- pH [2, 19]: 7.06
- pH [2, 17]: 7.01

Compound: CN1CCC[C@@H]1Cc1c[nH]c2ccc(CCS(=O)(=O)c3ccccc3)cc12 [eletriptan]
- solubility compared to higher API:captisol ratio ([8]; 2:1 ratio to captisol compared to 4:1 ratio): superior solubility
- appearance at higher API:captisol ratio ([8]; 4:1 ratio to captisol): precipitation
- pH of the solution before titration ([2]; 1:1 ratio of API to CapAcid): 0.48
- final pH ([2]; 1:1 ratio of API to CapAcid): 6.06
- pH of the solution before titration ([2]; 2:1 ratio of API to CapAcid): 1.42
- final pH ([2]; 2:1 ratio of API to CapAcid): 6.08
- pH of the solution before titration ([2]; 4:1 ratio of API to CapAcid): 2.34
- final pH ([2]; 4:1 ratio of API to CapAcid): 6.01
- pH of the ethanol solution prior to titration [3]: 8.02
- dissolution of 70 mg of the ethanol-prepared API-CapAcid solid in 1 mL water [3]: became cloudy but a large amount of oil remained at the bottom
- Reported Salt Solubility [4]: <1 mg/mL^16
- concentration (FB equivalents) at which the freebase dissolved [5, 18]: 33300 µg/mL
- concentration (FB equivalents) at which the freebase dissolved [5, 25]: ~8300 µg/mL
- dissolution by visual inspection ([5]; 4:1 ratio of API to CapAcid, 100 mg FB in 30 mL water, stirring for 2 days): most of the FB dissolved and the solution was cloudy

Compound: C=CCN1CC[C@]23c4c5ccc(O)c4O[C@H]2C(=O)CC[C@@]3(O)[C@H]1C5 [Naloxone]
- Osmolality [1, 10]: 279 mOsm/kg
- Osmolality [1, 11]: 279 mOsmol/kg
- Osmolality [1, 12]: 531.7 mOsmol/kg
- Osmolality [1, 13]: 139.7 mOsm/kg
- Osmolality [1, 14]: 531.7 mOsm/kg
- pH [2, 10]: 4.39
- pH [2, 19]: 6.01
- pH [2, 17]: 5.98
- Reported Freebase Solubility [4]: 1415 µg/mL
- Reported Salt Solubility [4]: 50 mg/mL^13
- pH past which the freebase crashed out ([5]; 70 mg/mL FB, 1.1 equivalents CapAcid): > 6.00

Compound: COc1ccc2c(c1)[C@]13CCCC[C@@H]1[C@H](C2)N(C)CC3 [DXM]
- solubility as stoichiometric (6.5:1) CapAcid salt compared with known API salts, in words ([5]; 70 mg/mL formulations): dramatic improvement in solubility
